From ChEMBL document CHEMBL3286127, “Aminoadamantanes with persistent in vitro efficacy against H1N1 (2009) influenza A” (J Med Chem, 2014) come the findings set out here.

Usually EC50 stands for the concentration needed to bring the measured effect to its halfway point.

One data set has as its system HEK293. The data set is classed as cell-based. The conditions noted are these: Influenza A virus (A/California/07/2009(H1N1)), 10 uM.
The next data set concerns Influenza B virus. Put plainly: Antiviral activity against Influenza B virus B/Russia/69 infected in MDCK cells at 50 uM. The format is functional, organism-based.
Data set [1] concerns Influenza A virus. The data set is described as follows: Antiviral activity against Influenza A virus A/Victoria/3/75(H3N2) infected in MDCK cells expressing wild type M2 after overnight incubation by fluorescence-based miniplaque assay. The data set is classed as functional, organism-based.
Data set [2] deals with MDCK. The data set is described as follows: Cytotoxicity against MDCK cells at 50 uM after 18 hrs. The data set is classed as cell-based, Canis lupus familiaris. The conditions noted are these: dog.
A further data set deals with Bovine parvovirus. The data set is described as follows: Antiviral activity against Bovine parvovirus infected in bovine embryonic cells at 50 uM. The data set is classed as functional, cell-based.
The subject of data set [3] is Influenza A virus. Put plainly: Antiviral activity against Influenza A virus A2/Taiwan/1/64(H2N2) infected in MDCK cells expressing wild type M2 after overnight incubation by fluorescence-based miniplaque assay. The data set is classed as functional, organism-based.
Data set [4] has as its system MDCK. The data set is described as follows: Cytotoxicity against MDCK cells at 5 uM after 18 hrs. The data set is classed as cell-based, Canis lupus familiaris. The conditions noted are these: dog.

Each structure is given as a SMILES string. Calls of active or inactive are those of the source. The calls are words filed in the database; no cut-off is given here. Where only a bound is given, the exact number is not on record here.

For `CCCC1(N)C2CC3CC(C2)CC1C3` (centres undefined), the Activity is 63% in the data set with HEK293 and “Non-toxic” in the data set on MDCK [2]. Also, the outcome in the data set with Influenza B virus and with Bovine parvovirus was inactive. Besides, the results for the half-maximal effective concentration (EC50) in the data set with Influenza A virus [1] and with Influenza A virus [3] were 23000 nM and below 240 nM, respectively.

Consider `CC(C)CC1(N)C2CC3CC(C2)CC1C3` (centres undefined), for which the 50% effective concentration (EC50) with Influenza A virus [1] is 13000 nM; in the data set with Influenza A virus [3], 400 nM. Moreover, the Activity result in the data set on MDCK [2] is given as “Non-toxic”.

Regarding `CC1(N)C2CC3CC(C2)CC1C3` (centres undefined), the result in the data set with Influenza B virus was inactive. In addition, the results for the EC50 in the data set with Influenza A virus [1] and with Influenza A virus [3] were 2000 nM and 500 nM, respectively. Further, the Activity entry in the data set on MDCK [2] is “Non-toxic”.

Regarding `NC1C2CC3CC(C2)CC1C3` (centres undefined), in the data set with Influenza B virus, the result was inactive. In addition, the EC50 in the data set with Influenza A virus [1] was 3300 nM; with Influenza A virus [3] it was 800 nM. In addition, in the data set with MDCK [2], the Activity entry is reported as “Non-toxic”.

`NC1(Cc2ccccc2)C2CC3CC(C2)CC1C3` (centres undefined): the concentration for a half-maximal effect (EC50) was found to be 18000 nM with Influenza A virus [1] and 200 nM with Influenza A virus [3]. Also, in the data set with MDCK [2], the Activity entry was “Non-toxic”.

On to `NC12CC3CC(CC(C3)C1)C2` [AMANTADINE], for which the EC50 with Influenza A virus [1] is 2770 nM; with Influenza A virus [3], 340 nM. Besides, the Activity result in the data set with MDCK [2] was “Non-toxic”.

Turning to `CCCCCCC1(N)C2CC3CC(C2)CC1C3` (centres undefined), the EC50 in the data set on Influenza A virus [1] stood at 1100 nM; in the data set with Influenza A virus [3], 1500 nM. In the data set with MDCK [4], the Activity entry is reported as “Non-toxic”.

For `CCC1(N)C2CC3CC(C2)CC1C3` (centres undefined), in the data set with Influenza B virus, the result was inactive. For the same compound, the 50% effective concentration (EC50) with Influenza A virus [1] was 2000 nM; in the data set on Influenza A virus [3], 800 nM. Moreover, the Activity result with MDCK [2] is “Non-toxic”.

Take `CCCCC1(N)C2CC3CC(C2)CC1C3` (centres undefined): the EC50 with Influenza A virus [1] was found to be 4000 nM; with Influenza A virus [3] it was 1500 nM. In the data set on MDCK [2], the Activity entry is on record as “Non-toxic”.

For `NC1(c2ccccc2)C2CC3CC(C2)CC1C3` (centres undefined), the EC50 in the data set with Influenza A virus [1] was 8000 nM; with Influenza A virus [3], 200 nM. For the same compound, in the data set with MDCK [2], the Activity result is on record as “Non-toxic”.

For `CC(N)C12CC3CC(CC(C3)C1)C2` (centres undefined) [RIMANTADINE], the figures for the EC50 with Influenza A virus [1] and in the data set with Influenza A virus [3] were 530 nM and 1600 nM, respectively. The Activity result in the data set with MDCK [2] is “Non-toxic”.
